Assay results: paper PMC4336331, “Novel Receptor-Derived Cyclopeptides to Treat Heart Failure Caused by Anti-β1-Adrenoceptor Antibodies in a Human-Analogous Rat Model” (PLoS ONE, 2015)

Columns and labels:
[1] = tested on: rat anti-β1EC2; experiment: Competition-ELISA, blocking of rat anti-β1EC2; type: binding; details: preincubation (12h, 4°C) with 40-fold excess of peptide; linear β1EC2-peptides (AA199-223) as antigen; n = 20 (Fig. 1B)
[2] = tested on: anti-β1EC2-induced β1-AR/cAMP signaling in HEKβ1-cells; experiment: FRET cAMP assay (Epac1-camps), blockade of anti-β1EC2-induced signals; type: cell-based, human; details: HEKβ1-cells with Epac1-camps FRET-sensor; IgG pre-incubated with peptide (Fig. 1F)
Protocol: The effects of anti-β1EC2 on β1AR-mediated intracellular cAMP-production were assessed by measuring fluorescence resonance energy transfer (FRET) in HEKβ1-cells transiently transfected with a FRET-sensor for cAMP, Epac1-camps. The sensor consists of the cAMP-binding protein Epac1 flanked by enhanced cyan or yellow fluorescent protein. […] IgG-preparations were added to the cells at 0.13 μg/μl protein concentration; 2μM (-)isoproterenol (Sigma) was used as a reference to determine the maximal cAMP-response. To test the blocking-efficacy of β1EC2-CP on anti-β1EC2-induced adrenergic signaling, the different IgG-preparations were pre-incubated with β1EC2-CP (20 μg/μl) for 6 h at 4 °C; for pharmacological blockade of anti-β1EC2-induced signals we utilised 5.0μM bisoprolol.
(D) Immunostaining experiments with rat anti- β1EC2 (1:100) using HEK-cells stably expressing β1-ARs (HEK β1) or not (wild type; HEK WT). IgG was prepared from anti- β1EC2-positive rats or 0.9% NaCl-injected control rats. Amino-terminal β1AR-specific rabbit anti-bodies (1:250) served as positive controls. […] HEK β1-cells were transfected with the cAMP-sensor Epac1-camps, which reacts to cAMP-binding with a reduction in fluorescence resonance energy transfer (FRET) between its fluorophores cyan (CFP) and yellow fluorescent protein (YFP). […] Representative FRET-ratio traces of 1/5 experiments are shown. Values are given in % of maximal cAMP-response achieved with 0.3μM (-)isoproterenol (Iso).

cyclo(RATHQEAINCYANETCCDFFTNQG) (cysteine pairing not given here) [β2EC2-CP, control for specificity, reference compound]
blocking of anti-β1EC2 in competition-ELISA, in words [1]: not blocked at all | blockade of anti-β1EC2-induced cAMP-signals, in words [2]: not blocked at all
